Assays:
[1] = target: T1, purified Hemoglobin S (HbS) (Homo sapiens, UniProt P68871+P69905, E7V); assay: Modulation of hemoglobin oxygen affinity: oxygen equilibrium curves (OEC) in purified HbS, HEMOX analyzer; assay type: biochemical; conditions: compounds tested at 30 μM; 25 μM purified HbS, 45 min at 37° C., pH 7.4
T1 construct: HbS was purified by a modified procedure; from tissue; host or cells: blood of homozygous sickle cell patients (CHORI)
Protocol: Oxygen equilibrium curves (OEC) in purified Hemoglobin S (HbS) were measured by the change in p50, the partial pressure of oxygen at which the heme binding sites in the HbS sample are 50% saturated with oxygen. HbS was purified by a modified procedure (Antonini and Brunori, 1971; Hemoglobin and Myoglobin in their Reactions with Ligands; North Holland Publishing Company; Amsterdam, London) from blood obtained from homozygous sickle cell patients though the Hemoglobinopathy Center at Children's Hospital Oakland Research Institute (CHORI) with Institutional Review Board approval. Oxygen equilibrium curves were carried out with a HEMOX analyzer, (TCS Scientific, New Hope, Pa.). Five hundred μL of 250 μM purified HbS were diluted into 4.5 mL of HEMOX buffer (30 mM TES, 130 mM NaCl, 5 mM KCl, pH=7.4) resulting in a final hemoglobin concentration of 25 μM. The compounds were added at the final desired concentrations. The mixture was incubated for 45 min at 37° C. and then transferred to the Hemox sample chamber. The samples were saturated with oxygen by flushing with compressed air for 10 minutes. The samples were then flushed with pure nitrogen and the absorbance of deoxy-Hb was recorded as a function of the solution pO2. The oxygen equilibrium data was then fit to the Hill Model to obtain values for p50. The deoxygenation curves for both HbS alone (control) and HbS in the presence of compound were collected with the TCS software. The p50 for purified Hbs was typically 13.8±1.6. Delta p50 values were obtained from the p50 value for control minus the p50 value for HbS treated with compound divided by the p50 value for the control.
The compounds of Table 1 that were where tested in the assay above were all found to have positive delta p50 values. Delta p50% is calculated from [[p50(HbS)-p50(HbS treated with compound)]/p50(HbS)]×100. Table 2 below lists the delta p50% values where + indicates a delta p50% of between 0 and 29 and ++ indicates a delta p50% of 30 or greater. Unless noted otherwise, the compounds in Table 2 were tested at 30 μM.

purified HBS = target: T2, purified HBS (Homo sapiens, UniProt P68871+P69905, E7V); assay: HbS polymerization assay (delay time, absorbance at 700 nm); assay type: biochemical; conditions: percent delay (% DT) of polymerization vs HBS alone; 50 μM purified HBS, 1.8 M potassium phosphate pH 7.4
T2 construct: HbS is purified by the CRO VIRUSYS, from blood obtained from homozygous sickle cell patients; tissue VIRUSYS (CRO that did the purification); host or cells: blood of homozygous sickle cell patients (CHORI)
Protocol: Polymerization assays are carried out in vitro using purified HBS exchanged into 1.8 M potassium phosphate buffer at pH 7.4. Using a slightly modified protocol (Antonini and Brunori, 1971), HbS is purified by the CRO VIRUSYS, from blood obtained from homozygous sickle cell patients through the Hemoglobinopathy Center at Children's Hospital Oakland Research Institute (CHORI) with Institutional Review Board approval. Compounds are prepared in 100% DMSO and a desired amount is added to 50 μM of purified HBS at a final DMSO concentration of 0.3%. Final potassium phosphate concentration is adjusted to 1.8 M using a combination of 2.5 M potassium phosphate stock solution and water at pH 7.4. The reaction mixture is incubated for an hour at 37° C. and then transferred into a 24-well plate for deoxygenation in a glove box containing 99.5% nitrogen and 0.5% oxygen. The 24-well plate is not covered and incubated at 4° C. on a plate cooler inside the glove box for one and a half hours. Fifty μL of the reaction mixture is transferred into a 96-well plate and the absorbance at 700 nm is measured every minute for one hour at 37° C. in a plate reader located inside the glove box. A plot of the absorbance against time is fitted using a Boltzman sigmoidal fit and the delay time (from zero to time at half Vmax) is measured. To compare and rank compounds, delay times are expressed as percent delay (% DT), which is defined as the difference in delay times for HBS/compound and HBS alone multiplied by 100 and divided by the delay time for HBS alone.
Compounds listed below have been tested in the polymerization assay. Activity ranges are defined by the number of dagger (†) symbols indicated. † denotes activity ≥40% but ≤80%; †† denotes activity >80% but ≤120%; ††† denotes activity >120% but ≤140%; †††† denotes activity >160%.

HbS/A = target: T3, HbS/A (Homo sapiens, UniProt P68871+P69905, E7V); assay: Relaxed-to-tense transition assay (R/T assay); assay type: biochemical; conditions: compounds tested at 9 μM; 3 μM HbS/A, 30 μM DPG, 1 hr at 37° C., deoxygenation with N2
T3 construct: A mixture of HbS/A was purified from blood; from tissue; host or cells: blood of homozygous sickle cell patients (CHORI)
Protocol: A relaxed-to-tense transition assay (“R/T assay”) was used to determine the ability of substituted benzaldehyde compounds to maintain the high-oxygen affinity relaxed (R) state of hemoglobin under deoxygenated conditions. This ability can be expressed as a “delta R” value (i.e., the change in the time-period of the R state after hemoglobin is treated with a compound, as compared to the period without treatment with the compound). Delta R is the % R to remaining after the compounds treatment compared with no treatment (e.g. if R % without treatment is 8% while with treatment with a target compound is 48% R at 30 μM, then % R is 40% for that compound.
A mixture of HbS/A was purified from blood obtained from homozygous sickle cell patients though the Hemoglobinopathy Center at Children's Hospital Oakland Research Institute (CHORI) with Institutional Review Board approval. HbS/A (at a final concentration of 3 μM) was incubated for 1 hr at 37° C. in presence or absence of compounds in […] potassium phosphate buffer, pH=7.4 and 30 μM 2, 3 diphosphoglycerate (DPG) in 96 well plates in a final volume of 160 μl. Compounds were added at different concentrations (3 μM to 100 μM final concentrations). Plates were covered with a Mylar film. After incubation was completed the Mylar cover was removed and the plates were placed in a Spectrostar Nano plate reader previously heated at 37° C. Five minutes later, N2 (flow rate=20 L/min) was flowed through the spectrophotometer. Spectroscopic measurements (300 nm to 700 nm) were taken every 5 min for 2 hours. Data analysis was performed by using linear regression from the data retrieved for all wavelengths.
Table 4 below lists the delta R values where + indicates a delta R of between 0 and 30, ++ indicates a delta R of between 30 and 50, and +++ indicates a delta R of 50 or greater. Unless noted otherwise, the compounds in Table 2 were tested at 9 μM.

[2] = tested on: whole blood from homozygous sickle cell patients; assay: Whole blood assay: oxygen equilibrium curves of whole blood, HEMOX analyzer; assay type: cell-based, human; conditions: compounds tested at 1000 μM; hematocrit 20%, 1 hour at 37° C.
Protocol: Oxygen Equilibrium Curves (OEC) of whole blood before and after treatment with different concentrations of substituted benzaldehyde compounds were performed as follows using a HEMOX analyzer (TCS Scientific, New Hope, Pa.). Blood samples from homozygous sickle cell patients were obtained though the Hemoglobinopathy Center at Children's Hospital Oakland Research Institute (CHORI) with Institutional Review Board approval. The hematocrit was adjusted to 20% using autologous plasma and the blood samples were incubated for 1 hour at 37° C. in absence or presence of compounds. 100 μl of these samples were added to 5 mL of Hemox buffer (30 mM TES, 130 mM NaCl, 5 mM KCl, pH=7.4) at 37° C. and then transferred to the Hemox sample chamber. The samples were saturated with oxygen by flushing with compressed air for 10 minutes. The samples were then flushed with pure nitrogen and the respective absorbances of oxy- and deoxy-Hb are recorded as a function of the solution pO2. The oxygen equilibrium data were then fitted to the Hill Model to obtain values for p50. The deoxygenation curves for both whole blood alone (control) and whole blood in the presence of the compound were collected with the TCS software.
Table 5 below lists the delta p50% values where + indicates a delta p50% of between 0 and 29, ++ indicates a delta p50% of between 30 and 50, and +++ indicates a delta p50% of 50 or greater. The compounds in Table 2 were tested at 1000 μM.

[3] = tested on: Transgenic mice producing human HbS; conditions: extreme hypoxia (5% oxygen), cited from earlier work

Question: With `O=Cc1c(O)cccc1OC[C@H]1CCC[C@@H](C(=O)O)C1` (relative stereo) [Compound 5, cis-3-((2-formyl-3-hydroxyphenoxy)methyl)cyclohexanecarboxylic acid] as the compound, how does the “delta p50” value [1] read?
Answer: Its value is “++ (++ indicates a delta p50% of 30 or greater)”.

Question: And the “% delta Delay” value (purified HBS)?
Answer: Its value is “†††† (†††† denotes activity >160%)”.

Question: And the “delta R (%)” value (HbS/A)?
Answer: The value was “+++ (+++ indicates a delta R of 50 or greater)”.

Question: What about the “delta p50%” value [2] of the same compound?
Answer: Its value is “++ (++ indicates a delta p50% of between 30 and 50)”.

Question: What does the source list for `COC(=O)[C@H]1CC[C@@H](COc2cccc(O)c2C=O)CC1` [Compound 1, cis-methyl 4-((2-formyl-3-hydroxyphenoxy)methyl)cyclohexanecarboxylate]?
Answer: delta p50 [1]: ++ (++ indicates a delta p50% of 30 or greater); % delta Delay (purified HBS): †† (†† denotes activity >80% but ≤120%); delta R (%) (HbS/A): +++ (+++ indicates a delta R of 50 or greater); delta p50% [2]: + (+ indicates a delta p50% of between 0 and 29)

Question: For `O=Cc1c(O)cccc1OC[C@H]1CC[C@@H](C(=O)O)CC1` [Compound 2, cis-4-((2-formyl-3-hydroxyphenoxy)methyl)cyclohexanecarboxylic acid], which “delta p50” value [1] is on record?
Answer: The value was “++ (++ indicates a delta p50% of 30 or greater)”.

Question: What about the “% delta Delay” value (purified HBS) of the same compound?
Answer: Its value is “†††† (†††† denotes activity >160%)”.

Question: And the “delta R (%)” value (HbS/A)?
Answer: The value was “++ (++ indicates a delta R of between 30 and 50)”.

Question: And the “delta p50%” value [2]?
Answer: Its value is “++ (++ indicates a delta p50% of between 30 and 50)”.

Question: Which “delta p50” value [1] does the source give for `COC(=O)[C@H]1CC[C@H](COc2cccc(O)c2C=O)CC1` [Compound 4, trans-methyl 4-((2-formyl-3-hydroxyphenoxy)methyl)cyclohexanecarboxylate] here?
Answer: The value was “++ (++ indicates a delta p50% of 30 or greater)”.

Question: What about the “% delta Delay” value (purified HBS) of the same compound?
Answer: The value was “††† (††† denotes activity >120% but ≤140%)”.

Question: What about the “delta R (%)” value (HbS/A) of the same compound?
Answer: The value was “+++ (+++ indicates a delta R of 50 or greater)”.

Question: And the “delta p50%” value [2]?
Answer: The value was “+ (+ indicates a delta p50% of between 0 and 29)”.

Question: What does the source list for `O=Cc1ccc(CO)o1` [Compound 5HMF, 5-hydroxymethyl-2-furfuraldehyde]?
Answer: hypoxia-induced sickled red blood cells ([3]; compared to non-treated mice): reduced amounts of hypoxia-induced sickled red blood cells; survival times [3]: significantly improved survival times

Question: With `O=Cc1c(O)cccc1OC[C@H]1CC[C@H](C(=O)O)CC1` [Compound 6, trans-4-((2-formyl-3-hydroxyphenoxy)methyl)cyclohexanecarboxylic acid] as the compound, how does the “delta p50” value [1] read?
Answer: The value was “++ (++ indicates a delta p50% of 30 or greater)”.

Question: And the “% delta Delay” value (purified HBS)?
Answer: The value was “†† (†† denotes activity >80% but ≤120%)”.

Question: What about the “delta p50%” value [2] of the same compound?
Answer: Its value is “+ (+ indicates a delta p50% of between 0 and 29)”.

Question: What does the source list for `COC(=O)C1CCCC(COc2cccc(O)c2C=O)C1` (stereo not shown) [Compound 7, methyl 3-((2-formyl-3-hydroxyphenoxy)methyl)cyclohexanecarboxylate]?
Answer: delta p50 [1]: ++ (++ indicates a delta p50% of 30 or greater); % delta Delay (purified HBS): †† (†† denotes activity >80% but ≤120%); delta p50% [2]: + (+ indicates a delta p50% of between 0 and 29)

Question: Which “delta p50” value [1] does the source give for `COc1cccc(OC[C@H]2CC[C@H](C(=O)OC)CC2)c1C=O` [Compound 8, trans-methyl 4-((2-formyl-3-methoxyphenoxy)methyl)cyclohexanecarboxylate] here?
Answer: Its value is “+ (+ indicates a delta p50% of between 0 and 29)”.

Question: What about the “% delta Delay” value (purified HBS) of the same compound?
Answer: Its value is “† († denotes activity ≥40% but ≤80%)”.

Question: What about the “delta R (%)” value (HbS/A) of the same compound?
Answer: The value was “+ (+ indicates a delta R of between 0 and 30)”.

Question: For `COC(=O)C1CCCC(COc2cccc(O)c2C=O)C1` (stereo not shown) [Compound 9, methyl 3-((2-formyl-3-hydroxyphenoxy)methyl)cyclohexanecarboxylate], which “delta p50” value [1] is on record?
Answer: Its value is “+ (+ indicates a delta p50% of between 0 and 29)”.

Question: What about the “delta R (%)” value (HbS/A) of the same compound?
Answer: Its value is “+++ (+++ indicates a delta R of 50 or greater)”.

Question: Which “% delta Delay” value (purified HBS) does the source give for `O=Cc1c(O)cccc1OCC1=C(c2ccccc2)CCCC1` [Compound 10, 2-hydroxy-6-((3,4,5,6-tetrahydro-[1,1′-biphenyl]-2-yl)methoxy)benzaldehyde] here?
Answer: Its value is “†† (†† denotes activity >80% but ≤120%)”.

Question: And the “delta R (%)” value (HbS/A)?
Answer: The value was “++ (++ indicates a delta R of between 30 and 50)”.

Question: What about the “delta p50%” value [2] of the same compound?
Answer: The value was “++ (++ indicates a delta p50% of between 30 and 50)”.

Question: For `O=Cc1c(O)cccc1OCC1CCCCC1c1ccccc1` (stereo not shown) [Compound 11, 2-hydroxy-6-((2-phenylcyclohexyl)methoxy)benzaldehyde], which “% delta Delay” value (purified HBS) is on record?
Answer: Its value is “† († denotes activity ≥40% but ≤80%)”.

Question: And the “delta R (%)” value (HbS/A)?
Answer: The value was “++ (++ indicates a delta R of between 30 and 50)”.

Reference: patent US10100043B2, “Substituted aldehyde compounds and methods for their use in increasing tissue oxygenation” (Global Blood Therapeutics, Inc., priority 2013, dated 2018)
